PubChem BioAssay (NCI)
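Cultured in 96-well plates, cells were exposed to test compound for 48 hours across five concentrations. GI50 = concentration required for 50% inhibition of growth. TGI: total growth inhibition.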

Key:
Assay in all cases: DTP human tumour cell line panel, 48 h
786-0 renal = test system: 786-0 renal
A498 renal = test system: A498 renal
A549 NSCLC = test system: A549 NSCLC
ACHN renal = test system: ACHN renal
BT-549 breast = test system: BT-549 breast
CAKI-1 renal = test system: CAKI-1 renal
CCRF-CEM leukemia = test system: CCRF-CEM leukemia
DU-145 prostate = test system: DU-145 prostate
EKVX NSCLC = test system: EKVX NSCLC
HCC-2998 colon = test system: HCC-2998 colon
HCT-116 colon = test system: HCT-116 colon
HCT-15 colon = test system: HCT-15 colon
HL-60(TB) leukemia = test system: HL-60(TB) leukemia
HOP-62 NSCLC = test system: HOP-62 NSCLC
HOP-92 NSCLC = test system: HOP-92 NSCLC
HS 578T breast = test system: HS 578T breast
HT29 colon = test system: HT29 colon
IGROV1 ovarian = test system: IGROV1 ovarian
K-562 leukemia = test system: K-562 leukemia
KM12 colon = test system: KM12 colon
LOX IMVI melanoma = test system: LOX IMVI melanoma
M14 melanoma = test system: M14 melanoma
MALME-3M melanoma = test system: MALME-3M melanoma
MCF7 breast = test system: MCF7 breast
MDA-MB-231 breast = test system: MDA-MB-231 breast
MDA-MB-435 = test system: MDA-MB-435
MOLT-4 leukemia = test system: MOLT-4 leukemia
NCI-H226 lung = test system: NCI-H226 lung
NCI-H460 lung = test system: NCI-H460 lung
NCI-H522 lung = test system: NCI-H522 lung
NCI/ADR-RES ovarian = test system: NCI/ADR-RES ovarian
OVCAR-3 ovarian = test system: OVCAR-3 ovarian
OVCAR-4 ovarian = test system: OVCAR-4 ovarian
OVCAR-5 ovarian = test system: OVCAR-5 ovarian
OVCAR-8 ovarian = test system: OVCAR-8 ovarian
PC-3 prostate = test system: PC-3 prostate
RPMI-8226 leukemia = test system: RPMI-8226 leukemia
RXF 393 renal = test system: RXF 393 renal
SF-268 CNS = test system: SF-268 CNS
SF-295 CNS = test system: SF-295 CNS
SF-539 CNS = test system: SF-539 CNS
SK-MEL-2 melanoma = test system: SK-MEL-2 melanoma
SK-MEL-28 melanoma = test system: SK-MEL-28 melanoma
SK-MEL-5 melanoma = test system: SK-MEL-5 melanoma
SK-OV-3 ovarian = test system: SK-OV-3 ovarian
SN12C renal = test system: SN12C renal
SNB-19 CNS = test system: SNB-19 CNS
SNB-75 CNS = test system: SNB-75 CNS
SR leukemia = test system: SR leukemia
SW-620 colon = test system: SW-620 colon
T-47D breast = test system: T-47D breast
TK-10 renal = test system: TK-10 renal
U251 CNS = test system: U251 CNS
UACC-257 melanoma = test system: UACC-257 melanoma
UACC-62 melanoma = test system: UACC-62 melanoma
UO-31 renal = test system: UO-31 renal

Cc1cn(-c2cc(NC(=O)c3cncc(C#Cc4cnc5ccc(OCCCS(C)(=O)=O)nn45)c3)cc(C(F)(F)F)c2)cn1
GI50 (786-0 renal): 2010 nM
TGI (786-0 renal): > 100000 nM
GI50 (A498 renal): > 100000 nM
TGI (A498 renal): > 100000 nM
GI50 (A549 NSCLC): 5340 nM
TGI (A549 NSCLC): > 100000 nM
GI50 (ACHN renal): 4760 nM
TGI (ACHN renal): > 100000 nM
GI50 (BT-549 breast): 1700 nM
TGI (BT-549 breast): 10600 nM
GI50 (CAKI-1 renal): 501 nM
TGI (CAKI-1 renal): 11800 nM
GI50 (CCRF-CEM leukemia): 389 nM
TGI (CCRF-CEM leukemia): 3610 nM
GI50 (DU-145 prostate): 1180 nM
TGI (DU-145 prostate): > 100000 nM
GI50 (EKVX NSCLC): 2350 nM
TGI (EKVX NSCLC): > 100000 nM
GI50 (HCC-2998 colon): 1940 nM
TGI (HCC-2998 colon): > 100000 nM
GI50 (HCT-116 colon): 317 nM
TGI (HCT-116 colon): 3220 nM
GI50 (HCT-15 colon): 5840 nM
TGI (HCT-15 colon): > 100000 nM
GI50 (HL-60(TB) leukemia): 401 nM
TGI (HL-60(TB) leukemia): 2510 nM
GI50 (HOP-62 NSCLC): 1140 nM
TGI (HOP-62 NSCLC): > 100000 nM
GI50 (HOP-92 NSCLC): 188 nM
TGI (HOP-92 NSCLC): 713 nM
GI50 (HS 578T breast): 1430 nM
TGI (HS 578T breast): 7030 nM
GI50 (HT29 colon): 706 nM
TGI (HT29 colon): > 100000 nM
GI50 (IGROV1 ovarian): 527 nM
TGI (IGROV1 ovarian): > 100000 nM
GI50 (K-562 leukemia): 128 nM
TGI (K-562 leukemia): > 100000 nM
TGI (KM12 colon): 3360 nM
GI50 (LOX IMVI melanoma): 875 nM
TGI (LOX IMVI melanoma): 27100 nM
GI50 (M14 melanoma): 1100 nM
TGI (M14 melanoma): 49400 nM
GI50 (MALME-3M melanoma): 397 nM
TGI (MALME-3M melanoma): 5110 nM
GI50 (MCF7 breast): 310 nM
TGI (MCF7 breast): 2520 nM
GI50 (MDA-MB-231 breast): 430 nM
TGI (MDA-MB-231 breast): > 100000 nM
GI50 (MDA-MB-435): 1490 nM
TGI (MDA-MB-435): > 100000 nM
GI50 (MOLT-4 leukemia): 635 nM
TGI (MOLT-4 leukemia): 6710 nM
GI50 (NCI-H226 lung): 922 nM
TGI (NCI-H226 lung): 49100 nM
GI50 (NCI-H460 lung): 3000 nM
TGI (NCI-H460 lung): > 100000 nM
GI50 (NCI-H522 lung): 1210 nM
TGI (NCI-H522 lung): 3000 nM
GI50 (NCI/ADR-RES ovarian): > 100000 nM
TGI (NCI/ADR-RES ovarian): > 100000 nM
GI50 (OVCAR-3 ovarian): 2510 nM
TGI (OVCAR-3 ovarian): > 100000 nM
GI50 (OVCAR-4 ovarian): 5780 nM
TGI (OVCAR-4 ovarian): > 100000 nM
GI50 (OVCAR-5 ovarian): 1790 nM
TGI (OVCAR-5 ovarian): > 100000 nM
GI50 (OVCAR-8 ovarian): 649 nM
TGI (OVCAR-8 ovarian): > 100000 nM
GI50 (PC-3 prostate): 5880 nM
TGI (PC-3 prostate): > 100000 nM
GI50 (RPMI-8226 leukemia): 2550 nM
TGI (RPMI-8226 leukemia): 92600 nM
GI50 (RXF 393 renal): 1140 nM
TGI (RXF 393 renal): 3320 nM
GI50 (SF-268 CNS): 1410 nM
TGI (SF-268 CNS): 6980 nM
GI50 (SF-295 CNS): 29100 nM
TGI (SF-295 CNS): > 100000 nM
GI50 (SF-539 CNS): 552 nM
TGI (SF-539 CNS): 7350 nM
GI50 (SK-MEL-2 melanoma): 427 nM
TGI (SK-MEL-2 melanoma): 2880 nM
GI50 (SK-MEL-28 melanoma): 1510 nM
TGI (SK-MEL-28 melanoma): > 100000 nM
GI50 (SK-MEL-5 melanoma): 1550 nM
TGI (SK-MEL-5 melanoma): 10500 nM
GI50 (SK-OV-3 ovarian): > 100000 nM
TGI (SK-OV-3 ovarian): > 100000 nM
GI50 (SN12C renal): 551 nM
TGI (SN12C renal): > 100000 nM
GI50 (SNB-19 CNS): 2570 nM
TGI (SNB-19 CNS): > 100000 nM
GI50 (SNB-75 CNS): 129 nM
TGI (SNB-75 CNS): 1760 nM
GI50 (SR leukemia): 303 nM
TGI (SR leukemia): 4820 nM
GI50 (SW-620 colon): 462 nM
TGI (SW-620 colon): > 100000 nM
GI50 (T-47D breast): 1760 nM
TGI (T-47D breast): > 100000 nM
GI50 (TK-10 renal): 3210 nM
TGI (TK-10 renal): > 100000 nM
GI50 (U251 CNS): 2670 nM
TGI (U251 CNS): > 100000 nM
GI50 (UACC-257 melanoma): 3980 nM
TGI (UACC-257 melanoma): > 100000 nM
GI50 (UACC-62 melanoma): 706 nM
TGI (UACC-62 melanoma): > 100000 nM
GI50 (UO-31 renal): 3590 nM
TGI (UO-31 renal): > 100000 nM
